Values after ≈ are worked out from the molar mass of the structure shown.
How the values were obtained:
L929 cells = test: Cytotoxicity, neutral red assay; format: cell-based; settings: for ratio of the well's OD compared to the OD of the negative control, Average (SD) (n = 2): 24 h, ratios ≦0.5 indicate a cytostatic effect
Protocol: L929 cells grown to approximately 80% confluency in HGM-M were washed with Hanks, trypsonised to detach the cells from the flask, then diluted to 10^5 cells/ml in HGM-M and 200 μl used to inoculate the wells of a 96-well microtitre tray. After incubation for 24 h at 37° C., adherent cells were washed with Hanks and then 100 μl HGM-M was added to the wells. Fresh TSB007 master stock solution (10 mg/ml) was serially 10-fold diluted in HGM-M to make solutions of 1000, 100, 10 and 1 μg/ml of TSB007. To the wells of the microtitre tray, 100 μl of these TSB007 solutions were also added, giving final concentrations of 500, 50, 5 and 0.5 μg/ml of TSB007. The same dilutions of DMSO were prepared and tested to check that cytotoxic activity was not due to the DMSO. A negative control was prepared containing only HGM-M, and a positive control was prepared by adding 100 μl of carboplatin (10 mg/ml; Mayne Pharma Pty Ltd, Australia) to wells containing 100 μl HGM-M. Controls and dilutions of TSB007 and DMSO were prepared in duplicate.
After 24 h shaking at 37° C., cytotoxicity was quantified using the neutral red assay. The cells were washed with Hanks then 200 μl HGM-M and 20 μl Neutral Red (3.3 g/L; Sigma-Aldrich) were added to each well. After 2 h shaking at 37° C., cells were washed twice with PBS then 200 μl of 1% acetic acid in 50% EtOH was added to each well to solubilise the stain. After 15 min shaking at 37° C. the OD690 nm of the wells was measured and subtracted from the OD540 nm. Results were then blanked against wells to which no cells had been added, and converted to a ratio of the OD of the negative control. Ratios […] indicated a cytostatic effect. Testing was performed on two separate occasions.

[1] = test system: Yersinia enterocolitica ATCC 9610; test: Disk diffusion; format: cell-based; settings: 10 mg/ml, 20 μl
E. coli NCTC 10418 = test: Broth microdilution MIC and MBC, expanded testing range; format: cell-based; settings: Escherichia coli, NCTC10418; MHB, growth-method inoculum, range 1024 to 0.5 μg/ml
Protocol: (§1) The method used was based on CLSI protocols for broth microdilution testing of these species. As recommended by CLSI, inocula were prepared by direct colony suspension, and the media used were cation-adjusted Mueller Hinton broth (CA-MHB) for Staphylococcus spp. and CA-MHB containing 5% lysed horse blood (CA-MHB+LHB) for Streptococcus spp. Briefly, 24 h blood agar plate (BA) cultures of Staphylococcus aureus strains NCTC 6571, ATCC 29213, ATCC 33592 (MRSA) and NCTC 10442 (MRSA), Staphylococcus epidermidis ATCC 29971, Staphylococcus xylosus ATCC 29971, Streptococcus pneumoniae strains ATCC 49619 and ATCC 6305, and Streptococcus pyogenes strains NCTC 8191 and NCTC 8302 were used to prepare 0.5 McFarland suspensions in saline. Two 640 μg/ml working stocks of TSB007 were prepared from a fresh master stock, one in CA-MHB for testing against the Staphylococcus spp. and the other in CA-MHB+LHB for testing against Streptococcus spp. The working stocks were further diluted 1/10 in these broths for adding to microtitre trays to test MICs of 32, 16, 8, 4, 2, 1, 0.5, 0.25, 0.125 and 0.06 μg/ml.
(§2) The wells of two 96-well microtitre trays (one for Staphylococcus spp. and one for Streptococcus spp.) were filled with 100 μl of the appropriate broth, except for the first column. The last column, a sterility control containing no TSB007 or inoculum, was filled with an additional 100 μl broth. Then 100 μl of the 64 μg/ml TSB007 solution was added to the first two columns, the contents of column 2 was mixed, then 100 μl of this was used in two-fold serial dilutions along the rest of the tray except the last two columns. The final 100 μl was discarded. […] Finally, to the first 11 wells of one row per strain, 100 μl of a 10^−2 dilution (in the appropriate broth) of the 0.5 McFarland suspension was added. The microtitre trays were then incubated at 35° C. for 24 h before the MICs were read visually. Wells were further subcultured (10 μl drop onto BA then incubated at 35° C. for 24 h) and colonies subsequently counted to determine minimum bactericidal concentrations (MBCs). The concentration of the initial inoculum was confirmed on BA by counting colonies from 2×10 μl spots of 10^−5 dilutions of the 0.5 McFarland suspensions. Testing was performed on two separate occasions.
(§3) The method described above, with some modifications, was used to determine the MIC and MBC for S. aureus NCTC 6571 and E. coli NCTC 10418. Concentrations of the compound were previously too low to determine the MBC of this S. aureus strain. Modifications were the use of Mueller-Hinton broth (MHB) instead of CA-MHB, the preparation of bacterial inoculum by the growth method instead of direct colony suspension, and the use of more concentrated working stocks and test concentrations of TSB007. […]

S. aureus NCTC 6571 = test: as above; format: cell-based; settings: Staphylococcus aureus, NCTC6571; MHB, growth-method inoculum, range 1024 to 0.5 μg/ml
Protocol: as §1, §2, §3

[2] = test system: Streptococcus pneumoniae ATCC 49619; test: Disk diffusion; settings: 10 mg/ml, 20 μl, Mueller Hinton + Blood & Incubated in 5% CO2

O=C(O)c1ccc(/C=C/c2cc(/C=C/c3ccc(C(=O)O)cc3)cc(/C=C/c3ccc(C(=O)O)cc3)c2)cc1 [TSB007]
ratio of the well's OD compared to the OD of the negative control, Average (SD) (n = 2) (L929 cells; 0.5 μg/ml): 0.846 (0.285)
ratio of the well's OD compared to the OD of the negative control, Average (SD) (n = 2) (L929 cells; 5 μg/ml): 0.882 (0.021)
ratio of the well's OD compared to the OD of the negative control, Average (SD) (n = 2) (L929 cells; 50 μg/ml): 0.867 (0.030)
cytostatic effect on L929 cells (L929 cells; 500 μg/ml): cytostatic
ratio of the well's OD compared to the OD of the negative control, Average (SD) (n = 2) (L929 cells; 500 μg/ml): 0.384 (0.009)
cytostatic effect on L929 cells (L929 cells; 0.5-50 μg/ml): not significantly cytostatic
Zone diameters, 24 h TSB007 [1]: 7 trim
MBC (E. coli NCTC 10418): > 1020 µg/mL
MIC (E. coli NCTC 10418): 512 µg/mL (≈ 991 µM)
MBC (S. aureus NCTC 6571): 128 to 256 µg/mL (≈ 248 to 496 µM)
MIC (S. aureus NCTC 6571): 2 µg/mL (≈ 3.87 µM)
Zone diameters, 24 h TSB007 ([2]; 24 h): 16 trim
Zone diameters, 48 h TSB007 ([2]; 48 h): 16 trim

Source: patent US9738591B2, “Antimicrobial compounds” (priority 2009, dated 2017)
